Source: US12653776B2, “Methods of treatment of cancer by continuous infusion of coenzyme Q10” (priority 2013, dated 2026)

Assay: First-in-human Phase 1 study (CTL0510), 4-hour IV infusion 3 times weekly: safety
Details: in vivo
Protocol: The first-in-human Phase 1 study with coenzyme Q10 nanosuspension (40 mg/ml) was conducted in 50 patients with advanced solid tumors. The objectives were to assess the safety, maximum tolerated dose, PK and PD of coenzyme Q10, specifically a 4% coenzyme Q10 nanosuspension formulation (as described in WO 2011/112900, the entire contents of which are expressly incorporated herein by reference), administered as a 4-hour IV infusion 3 times weekly in 28-day cycles. Nine dose levels were explored ranting from 5.62 to 139 mg/kg. Plasma concentration profiles and PK parameters were determined from blood samples collected pre-dose and at intervals to 48 hours post-dose.

Q: For Vitamin K [reference compound], which “INR after Vitamin K administration” value is on record?
A: all INRs decreased to grade 1 or resolved
